According to US20150119601A1, “MONOFUNCTIONAL MCR + 3-HP DEHYDROGENASE” (OPX Biotechnologies, Inc., priority 2013, published 2015):
Like-named read-outs stand apart in the source and are kept apart here.

Legend:
E. coli strains = test: Growth inhibition of E. coli strains by 3-HP; format: cell-based; settings: E. coli strains grown in the presence of 3-HP
H. elongata ACCase = test: Salt effect on H. elongata ACCase compared to E. coli ACCase; format: biochemical, Halomonas elongata; settings: FIG. 4
Method: Concentrations of products were measured using the Nanodrop spectophotometer.

E. coli ACCase = E. coli ACCase (Escherichia coli, UniProt P0A9Q5+P0ABD5+P0ABD8+P24182); settings: for inhibition of E. coli ACCase by the salts: FIG. 4; for decrease of ACCase enzyme activity: relative to control (FIG. 4)
E. coli ACCase, sequence (P0ABD5 whole entry): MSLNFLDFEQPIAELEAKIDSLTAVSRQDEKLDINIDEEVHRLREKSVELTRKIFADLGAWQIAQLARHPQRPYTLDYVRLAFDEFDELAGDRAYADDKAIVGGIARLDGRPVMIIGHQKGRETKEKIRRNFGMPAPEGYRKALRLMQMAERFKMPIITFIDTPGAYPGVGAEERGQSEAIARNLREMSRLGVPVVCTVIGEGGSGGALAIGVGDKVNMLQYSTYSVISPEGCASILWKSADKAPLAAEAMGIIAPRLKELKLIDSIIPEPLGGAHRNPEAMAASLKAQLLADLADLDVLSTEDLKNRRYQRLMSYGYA
E. coli ACCase, sequence (P0A9Q5 whole entry): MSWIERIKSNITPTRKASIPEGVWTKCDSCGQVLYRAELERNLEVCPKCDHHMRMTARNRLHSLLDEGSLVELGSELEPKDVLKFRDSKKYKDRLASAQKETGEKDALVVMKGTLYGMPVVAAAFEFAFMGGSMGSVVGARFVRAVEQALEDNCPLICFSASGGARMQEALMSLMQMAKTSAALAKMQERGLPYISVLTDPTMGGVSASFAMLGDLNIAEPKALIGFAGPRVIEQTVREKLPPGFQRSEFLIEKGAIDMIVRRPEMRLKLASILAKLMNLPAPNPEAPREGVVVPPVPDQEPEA
Method: Levels of greater than 0.66M (60 g/L) are expected to be present for commercially viable commercial production of 3-HP.
Each gene was amplified by PCRs with Pfu Ultra II HS using the manufacturer's instructions, and the PCR products were purified using the Zymo PCR Cleanup kit. Concentrations of products were measured using the Nanodrop spectophotometer. The Gibson Assembly kit (NEB) was used to construct plasmids expressing the ACCase subunit genes as directed by the manufacturer. The effect of NH4-3-HP and NH4Cl on H. elongata ACCase was tested and compared to the E. coli ACCase.

[1] = salts of 3-HP levels near 0.66M

SMILES | 3-HP level at which growth inhibition is demonstrated (E. coli strains) [g/L] | effect of the salts on ACCase from the halophile (H. elongata ACCase) | inhibition of E. coli ACCase by the salts (E. coli ACCase) | decrease of ACCase enzyme activity (E. coli ACCase; [1]) | decrease of ACCase enzyme activity (E. coli ACCase; salt levels near 0.44M)
O=C(O)CCO [3-HP, 3-hydroxypropionic acid] | ≥ 20 | – | – | – | –
N.O=C(O)CCO [NH4-3-HP] | – | less affected | significantly inhibited | approximately 80% | –
Cl.N [NH4Cl] | – | less affected | significantly inhibited | – | approximately 80%
O=C([O-])CCO.[Na+] [Na-3-HP] | – | – | – | approximately 80% | –
[Cl-].[Na+] [NaCl] | – | – | – | – | approximately 80%
